Measured values: PMC6736360, “P-Glycoprotein–Mediated Efflux Reduces the In Vivo Efficacy of a Therapeutic Targeting the Gastrointestinal Parasite Cryptosporidium” (The Journal of Infectious Diseases, 2019)
“Also recorded” adds a separate entry of the source. Read-outs that look alike come from different tables or passages of the source.

Legend:
Cryptosporidium = tested on: Cryptosporidium; set-up: method as in PMID 28329187; conditions: cited from earlier work
C. parvum [1] = experiment: Hollow fiber in vitro Cryptosporidium culture with polarized HCT-8 cells; format: cell-based, Cryptosporidium parvum
Protocol: C. parvum was cultured using a hollow fiber bioreactor modified for evaluation of potential chemotherapeutic compounds [[21–23]]. Briefly, the system used a 20-kD MWCO polysulfone fiber cartridge (FiberCell Systems, Frederick, MD). HCT-8 cells were grown on the outer surface of the fibers (extracapillary space), and reservoirs were used to provide nutrients to the cells. When the glucose concentration decreased to at least 2 g/L, the extracapillary space was inoculated with 10^6C. parvum (Iowa isolate, Bunch Grass Farms, Deary, ID). […] Compound concentration was reduced over time by the flow of medium through the extracapillary and intracapillary spaces. Samples were removed from the extracapillary space once per day for evaluation of parasite numbers.
C. parvum growth was determined by analysis of the amount of C. parvum 18S-rRNA present and compared to the HCT-8 18S-rRNA as previously described^3. Briefly this was performed by centrifugation at 14,000 x g for 5 min of 0.5 mL samples collected from the extracapillary space (ECS). The pellet was resuspended in 100 µL of iScript buffer and subject to 6-freeze/thaw cycles comprising 1 min in liquid nitrogen followed by 1.5 min at 70 °C. The lysate was collected by centrifugation at 16,162 x g for 5 min, and the RNA purified according to the manufacturer’s instructions (iScriptTM, RT-qPCR sample preparation kit, Bio-Rad Laboratories). C. parvum was enumerated by quantitating the Cp18S-rRNA using the following specific forward and reverse primers - Cp18S-995F: 5’-[…]-3’ and Cp18S-1206R: 5’-[…]-3’ and compared to the human Hs18S-rRNA using the following primer sets - Hs18S-F1373: 5’-[…]-3’ and Hs18S-R1561: 5’-[…]-3’. The amount of 18S-rRNA was determined using 5 ng samples by RT-qPCR as described the manufacturer instructions using a Luna Universal One-Step® RT-qPCR kit (New England Biologics) and a Quant Studio 6 Flex 44 instrument. The cell number is calculated from the CT means using a set of standards prepared from 10^4, 10^5, and 10^6 C. parvum oocysts and compared to 10^4, 10^5, and 10^6 HCT-8 cells.

[2] = Mouse oral plasma pharmacokinetics with or without elacridar; format: in vivo, mice; conditions: for AUC(0-inf) / Cmax / Tmax: mouse, plasma, po, mouse plasma, oral, 1369 60 mg/kg, 1318 50 mg/kg
Protocol: Mouse oral pharmacokinetic (PK) studies were performed as previously described^1. Briefly, blood samples were taken by tail bleeding into heparinized tubes at designated time points and centrifuged to obtain plasma. The samples were frozen and stored at -20°C until extraction and analysis. PK calculations of Tmax, Cmax, AUC, oral clearance, and half-life were performed using Pharsight Phoenix WinNonlin software (Certara, St. Louis, MO).

Caco-2 cells = experiment: Caco-2 trans-well apparent permeability assay; format: in vitro ADME; conditions: Caco-2
Protocol: To initially characterize the permeability of BKIs 1294, 1369, and 1318, the software MedChem Designer (Simulations +, Lancaster, CA) was used to predict the Peff. The in vitro apparent permeability (Papp) was carried out by Absorption Systems LP (Exton, PA) with a Caco-2 trans-well assay. Caco-2 cells (clone C2BBe1) were obtained from American Type Culture Collection (Manassas, VA) were grown to confluence on collagen-coated, microporous membranes in 12-well assay plates. The permeability assay buffer was Hanks’ balanced salt solution (HBSS) containing 10 mM HEPES and 15 mM glucose at a pH of 7.4. The buffer in the receiver chamber also contained 1% bovine serum albumin. The dosing solution concentration was 5 µM BKI in assay buffer, and the cell monolayers were dosed on the apical side (A?B) or basolateral side (B?A) and incubated at 37°C with 5% CO2 in a humidified incubator. After 120 minutes, samples were taken from the donor and receiver chambers in duplicate. The Papp was calculated with equation (1) and the percent recovery with equation (2).
Papp = (dCr/dt) × Vr/(A × CA) (1)
Percent Recovery = 100 × ((Vr × Cr^final) + (Vd × Cd^final))/(Vd × […]) (2)
where dCr/dt is the slope of the cumulative concentration in the receiver compartment versus time in µM s^-1; Vr is the volume of the receiver compartment in cm^3; Vd is the volume of the donor compartment in cm^3; A is the area of the insert (1.13 cm^2 for 12-well); CA is the average of the nominal dosing concentration and the measured 120 minute donor concentration in µM; CN is the nominal concentration of the dosing solution in µM; Cr^final is the cumulative receiver concentration in µM at the end of the incubation period; Cd^final is the concentration of the donor in µM at the end of the incubation period.
(§1) To ensure no damage was inflicted to the cell monolayers during the flux period, lucifer yellow flux was also measured post-experimentally for each monolayer. To determine whether BKIs 1294, 1369, and 1318 were substrates of P-gp in vitro, P-gp efflux was characterized using the Caco-2 permeability assay protocol with a few modifications. The dosing solution concentration was 5 μM of BKI in the assay buffer +/- 1 μM valspodar. Cells were first pre-incubated for 30 minutes with HBSS containing +/- 1 μM valspodar. Cell monolayers were dosed on the apical side (A?B) or basolateral side (B?A), and incubated at 37°C with 5% CO2 in a humidified incubator. Samples were taken from the donor and receiver chambers at 120 minutes. Each determination was performed in duplicate.

P-gp = target: T1, P-gp (Homo sapiens, UniProt P08183); experiment: Caco-2 P-gp efflux assay +/- valspodar; format: in vitro ADME; conditions: for P-gp Substrate Classification: Caco-2
T1 construct: endogenous in cells; host or cells: Caco-2 cells (clone C2BBe1, ATCC); assay run by Absorption Systems LP
Description: Given the well-known role of P-gp in the efflux of many diverse drugs, the adenosine triphosphate–binding cassette (ABC) transporter was specifically chosen for initial studies, to identify the transporter responsible for BKI1318’s relatively low Papp. A Caco-2 system with overexpression of P-gp was used to verify the role of P-gp in BKI1318 transport (Supplementary Table 2). […] It should be noted that this experiment characterized the importance of P-gp with a single concentration of BKI1318. The kinetics of BKI1318 transport mediated by P-gp are still unknown, and it is not clear how the fraction of absorption mediated by P-gp transport will change with different concentrations of BKI1318.
as §1

C. parvum [3] = tested on: C. parvum; set-up: method as in PMID 28329187; conditions: previously published study; cited from earlier work
[4] = mice, 50 mg/kg oral, 30 mg/kg elacridar, P < .05
[5] = 30 mg/kg elacridar 15 minutes before, read-out: AUC0-inf w/ Elacridar
[6] = 30 mg/kg elacridar 15 minutes before, read-out: Cmax w/ Elacridar
[7] = 30 mg/kg elacridar 15 minutes before, read-out: Tmax w/ Elacridar

T1 sequence (P08183 whole entry): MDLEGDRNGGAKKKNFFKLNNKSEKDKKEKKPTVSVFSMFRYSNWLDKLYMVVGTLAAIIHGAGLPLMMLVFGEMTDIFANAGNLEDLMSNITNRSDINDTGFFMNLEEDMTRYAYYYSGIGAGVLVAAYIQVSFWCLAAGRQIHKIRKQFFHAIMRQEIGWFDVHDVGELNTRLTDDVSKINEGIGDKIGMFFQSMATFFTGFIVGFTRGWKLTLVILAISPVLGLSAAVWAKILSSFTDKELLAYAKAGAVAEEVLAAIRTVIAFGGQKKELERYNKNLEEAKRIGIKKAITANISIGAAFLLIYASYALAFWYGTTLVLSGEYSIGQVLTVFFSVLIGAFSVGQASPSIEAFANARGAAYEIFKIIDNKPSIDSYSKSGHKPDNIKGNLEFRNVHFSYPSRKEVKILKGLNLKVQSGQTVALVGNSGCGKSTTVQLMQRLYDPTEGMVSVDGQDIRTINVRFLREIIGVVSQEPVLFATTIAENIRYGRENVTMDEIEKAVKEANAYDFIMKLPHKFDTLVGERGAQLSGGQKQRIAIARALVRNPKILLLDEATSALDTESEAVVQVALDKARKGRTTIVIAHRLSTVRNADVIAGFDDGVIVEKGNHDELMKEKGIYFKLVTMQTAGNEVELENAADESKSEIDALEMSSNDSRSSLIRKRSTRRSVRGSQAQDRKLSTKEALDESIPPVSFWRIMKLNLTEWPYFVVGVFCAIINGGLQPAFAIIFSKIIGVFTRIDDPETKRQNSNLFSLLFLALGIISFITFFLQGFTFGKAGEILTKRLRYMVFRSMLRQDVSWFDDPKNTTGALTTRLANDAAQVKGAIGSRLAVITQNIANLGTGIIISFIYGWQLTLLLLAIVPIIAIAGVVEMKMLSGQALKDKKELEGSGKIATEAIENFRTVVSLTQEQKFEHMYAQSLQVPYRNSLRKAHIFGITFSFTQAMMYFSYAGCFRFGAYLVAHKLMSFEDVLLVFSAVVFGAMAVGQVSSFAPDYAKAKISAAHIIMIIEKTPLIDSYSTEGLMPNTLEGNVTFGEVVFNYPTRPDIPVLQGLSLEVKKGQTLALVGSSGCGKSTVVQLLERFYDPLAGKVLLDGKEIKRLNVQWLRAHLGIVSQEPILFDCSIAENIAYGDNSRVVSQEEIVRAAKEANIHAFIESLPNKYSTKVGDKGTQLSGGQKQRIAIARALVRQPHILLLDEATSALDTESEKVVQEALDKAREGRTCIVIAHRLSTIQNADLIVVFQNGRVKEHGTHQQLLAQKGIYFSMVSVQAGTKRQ

| Oral clearance with elacridar, fold greater than observed for BKI1369 ([2]; mice) | Oral clearance (clearance/bioavailability) with elacridar coadministration ([2]; mice, 50 mg/kg oral, 30 mg/kg elacridar) | Increase of plasma AUC0–∞ by elacridar coadministration [2, 4] | Increase of plasma Cmax by elacridar coadministration [2, 4] | AUC(0-inf) [2, 5] | Cmax [2, 6] | Tmax [2, 7] | AUC(0-inf) ([2]; alone, read-out: AUC0-inf) | Cmax ([2]; alone, read-out: Cmax) | Tmax ([2]; alone, read-out: Tmax) | A → B Papp, fold lower than BKI1369 and BKI1294 (Caco-2 cells) | P-gp Substrate Classification (P-gp) | efflux ratio at 120 min, 5 µM (P-gp; human, pH 7.4, Caco-2 with overexpression of P-gp, 5 μM, no inhibitor) | Compound | Efficacy in neonatal mouse model of Cryptosporidium infection (Cryptosporidium) | Effect on C. parvum levels/growth (C. parvum [1]; hollow fiber model, compound alone, 80 µM once daily) | Effect on C. parvum levels with elacridar coadministered (C. parvum [1]; hollow fiber model, elacridar coadministered) | Reduction in C. parvum levels with elacridar (80 µM) coadministered (C. parvum [1]; hollow fiber, 80 µM BKI1318 once daily plus 80 µM elacridar) | C. parvum reduction in mouse model of cryptosporidiosis (C. parvum [3]) | Reduction of C. parvum levels over the course of the study (C. parvum [1]; hollow fiber model, polarized HCT-8 cells) | Change in plasma pharmacokinetics when elacridar administered before ([2]; mice, 60 mg/kg oral, 30 mg/kg elacridar) |
| --- | --- | --- | --- | --- | --- | --- | --- | --- | --- | --- | --- | --- | --- | --- | --- | --- | --- | --- | --- | --- |
| 5 fold | 207 mL/h | approximately 2 fold | approximately 2 fold | 12 ± 1.6 µM·h | 1800 nM | 2 h | 6.6 ± 1.7 µM·h | 1000 nM | 2.3 h | approximately 50 fold | Positive | 19 | CCOc1ccc2cc(-c3nn(CC4CCNCC4)c4ncnc(N)c34)ccc2n1 [BKI1318] | efficacious | did not decrease; also recorded: no effect | reduced C. parvum levels by an order of magnitude | approximately 1 log |  |  |  |
|  |  |  |  | 91.4 ± 5 µM·h | 4100 ± 300 nM | 4 ± 1.6 h | 75.6 ± 8.9 µM·h | 4200 nM | 2 h |  | Negative |  | CCOc1ccc2cc(-c3nn(CC4CCN(C)CC4)c4ncnc(N)c34)ccc2n1 [BKI1369] | efficacious |  |  |  | > 2 log | > 3 orders of magnitude | not a significant change; also recorded: not significantly different |
